These results are taken from patent US11912703B2, “6-azaindole compounds” (BRISTOL-MYERS SQUIBB COMPANY, priority 2017, dated 2024).

For one assay, the target named is human TLR7 (Homo sapiens (Human), UniProt Q9NYK1). Description: TLR7 inhibition reporter assay (HEK-Blue SEAP). To be noted: HEK-Blue cells overexpressing human TLR7, gardiquimod 7.5 μM stimulation. Format: cell-based. Background: In a reporter assay the amount or activity of a reporter protein is the signal.
The target of the next assay is human TLR8 (Homo sapiens (Human), UniProt Q9NR97). The experiment in a line: TLR8 inhibition reporter assay (HEK-Blue SEAP).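 Also: SEAP driven by IFN-β minimal promoter with five NF-κB and AP-1 sites, compounds tested 0.05 nM to 50 µM, 22 h incubation, inhibition relative to agonist plus DMSO wells.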 To be noted: read-out: TLR8 IC50; HEK-Blue cells overexpressing human TLR8, R848 15.9 μM stimulation, SEAP reporter.
Chain of human TLR8 (Q9NR97 27-1041): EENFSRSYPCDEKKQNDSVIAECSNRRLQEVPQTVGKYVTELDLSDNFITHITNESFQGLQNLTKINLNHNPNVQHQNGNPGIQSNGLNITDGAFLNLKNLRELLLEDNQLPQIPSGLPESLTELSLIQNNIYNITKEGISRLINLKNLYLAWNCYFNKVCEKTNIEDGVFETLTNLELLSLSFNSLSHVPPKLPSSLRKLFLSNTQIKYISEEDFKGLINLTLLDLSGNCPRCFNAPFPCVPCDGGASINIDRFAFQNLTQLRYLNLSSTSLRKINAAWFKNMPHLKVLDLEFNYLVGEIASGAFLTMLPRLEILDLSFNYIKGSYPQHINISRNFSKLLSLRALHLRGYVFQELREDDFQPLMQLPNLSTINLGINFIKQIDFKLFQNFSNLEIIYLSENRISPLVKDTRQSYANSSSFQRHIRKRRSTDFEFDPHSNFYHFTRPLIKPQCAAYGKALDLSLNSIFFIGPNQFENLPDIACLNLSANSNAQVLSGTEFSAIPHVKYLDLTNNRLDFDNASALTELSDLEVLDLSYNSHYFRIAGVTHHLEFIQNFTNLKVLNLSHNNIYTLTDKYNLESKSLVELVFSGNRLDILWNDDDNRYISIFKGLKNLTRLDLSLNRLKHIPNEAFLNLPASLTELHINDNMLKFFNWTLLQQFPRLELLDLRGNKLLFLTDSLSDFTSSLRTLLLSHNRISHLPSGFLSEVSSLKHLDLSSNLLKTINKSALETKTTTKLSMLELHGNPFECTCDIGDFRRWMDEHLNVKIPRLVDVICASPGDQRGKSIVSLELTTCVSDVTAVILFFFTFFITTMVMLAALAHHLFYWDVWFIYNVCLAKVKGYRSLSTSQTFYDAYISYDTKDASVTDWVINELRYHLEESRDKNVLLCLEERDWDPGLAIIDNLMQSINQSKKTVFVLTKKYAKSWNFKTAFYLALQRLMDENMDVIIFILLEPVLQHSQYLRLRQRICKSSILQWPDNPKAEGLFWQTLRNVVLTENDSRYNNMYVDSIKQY
For the next assay, the target named is human TLR9 (Homo sapiens (Human), UniProt Q9NR96). The experiment in a line: TLR9 inhibition reporter assay (HEK-Blue SEAP).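 Also: SEAP driven by IFN-β minimal promoter carrying five NF-κB and AP-1 sites, 22 h at 37 °C, compounds 0.05 nM–50 µM, inhibition scaled between agonist-plus-DMSO and reference-inhibitor wells.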 To be noted: read-out: TLR9 IC50; HEK-Blue cells overexpressing human TLR9, ODN2006 5 nM stimulation, SEAP reporter.
Chain of human TLR9 (Q9NR96 26-1032): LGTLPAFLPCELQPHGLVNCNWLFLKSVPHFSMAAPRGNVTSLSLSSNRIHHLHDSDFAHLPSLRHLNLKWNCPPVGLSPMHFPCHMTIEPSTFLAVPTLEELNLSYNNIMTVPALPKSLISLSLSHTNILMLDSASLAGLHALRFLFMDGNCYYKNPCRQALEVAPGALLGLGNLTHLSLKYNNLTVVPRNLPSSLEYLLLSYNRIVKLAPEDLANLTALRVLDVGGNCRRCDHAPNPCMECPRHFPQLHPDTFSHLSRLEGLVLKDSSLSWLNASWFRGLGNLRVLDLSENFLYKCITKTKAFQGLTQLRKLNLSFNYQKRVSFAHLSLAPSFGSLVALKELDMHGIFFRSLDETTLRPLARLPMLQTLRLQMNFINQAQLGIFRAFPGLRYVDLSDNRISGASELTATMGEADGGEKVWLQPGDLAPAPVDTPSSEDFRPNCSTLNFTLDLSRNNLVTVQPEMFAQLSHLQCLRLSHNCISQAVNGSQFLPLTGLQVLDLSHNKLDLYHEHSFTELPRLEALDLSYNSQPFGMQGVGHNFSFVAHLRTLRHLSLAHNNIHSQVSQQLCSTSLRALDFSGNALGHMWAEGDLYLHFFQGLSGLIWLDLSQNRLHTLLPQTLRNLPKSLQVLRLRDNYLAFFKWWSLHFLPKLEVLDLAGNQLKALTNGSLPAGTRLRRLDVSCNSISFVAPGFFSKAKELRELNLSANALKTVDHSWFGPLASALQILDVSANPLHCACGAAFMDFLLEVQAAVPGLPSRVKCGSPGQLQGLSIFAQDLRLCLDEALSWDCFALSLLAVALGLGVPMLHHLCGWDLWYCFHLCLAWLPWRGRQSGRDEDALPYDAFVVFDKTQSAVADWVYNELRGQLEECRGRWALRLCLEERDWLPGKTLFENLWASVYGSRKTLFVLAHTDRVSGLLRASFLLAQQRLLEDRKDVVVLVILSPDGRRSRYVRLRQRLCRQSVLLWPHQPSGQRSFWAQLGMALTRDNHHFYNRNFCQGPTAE

Chain of human TLR7 (Q9NYK1 27-1049): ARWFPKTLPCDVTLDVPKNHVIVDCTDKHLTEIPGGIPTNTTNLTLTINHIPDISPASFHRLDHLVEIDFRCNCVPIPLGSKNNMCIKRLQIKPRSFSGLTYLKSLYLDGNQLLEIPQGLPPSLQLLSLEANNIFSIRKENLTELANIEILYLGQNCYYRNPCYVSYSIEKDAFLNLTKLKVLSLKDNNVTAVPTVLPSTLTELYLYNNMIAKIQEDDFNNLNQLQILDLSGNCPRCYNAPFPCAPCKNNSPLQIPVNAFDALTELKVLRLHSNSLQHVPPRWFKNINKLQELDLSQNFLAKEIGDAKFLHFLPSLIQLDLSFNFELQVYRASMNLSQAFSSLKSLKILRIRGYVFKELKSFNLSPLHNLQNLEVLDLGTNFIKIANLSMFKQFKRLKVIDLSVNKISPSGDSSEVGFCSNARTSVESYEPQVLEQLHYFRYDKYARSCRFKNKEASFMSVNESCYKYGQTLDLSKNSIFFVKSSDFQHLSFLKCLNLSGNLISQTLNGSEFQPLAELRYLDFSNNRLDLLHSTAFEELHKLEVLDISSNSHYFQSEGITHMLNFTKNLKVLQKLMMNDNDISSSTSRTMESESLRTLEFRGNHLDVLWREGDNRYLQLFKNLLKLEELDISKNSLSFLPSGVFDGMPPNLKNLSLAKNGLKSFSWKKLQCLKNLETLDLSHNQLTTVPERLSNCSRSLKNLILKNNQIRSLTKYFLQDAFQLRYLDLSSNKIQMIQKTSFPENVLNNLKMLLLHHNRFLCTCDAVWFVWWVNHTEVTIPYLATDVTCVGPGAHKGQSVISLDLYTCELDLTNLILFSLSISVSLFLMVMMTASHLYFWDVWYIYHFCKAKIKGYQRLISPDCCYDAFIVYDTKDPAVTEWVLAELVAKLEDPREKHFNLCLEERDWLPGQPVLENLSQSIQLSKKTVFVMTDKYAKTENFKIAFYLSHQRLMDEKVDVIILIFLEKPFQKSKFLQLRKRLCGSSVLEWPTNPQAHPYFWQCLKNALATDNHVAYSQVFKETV

As usually defined, the IC50 is the concentration at which inhibition is half-maximal. On to `Cc1c(N2CCC(N3CCS(=O)(=O)CC3)CC2)ncc2[nH]c(-c3cc(C)c4ncnn4c3)c(C(C)C)c12` [Example 281], for which the IC50 stood at 16 nM against human TLR7, 43 nM at human TLR8 and 36400 nM at human TLR9.
With `Cc1c(N2CCC(N3CCOCC3)CC2)ncc2[nH]c(-c3cc(C)c4ncnn4c3)c(C(C)C)c12` [Example 282], the IC50 at human TLR7 turned out to be 1.1 nM; on human TLR8, 0.97 nM; at human TLR9, 1070 nM.
Turning to `Cc1c(N2CCC(NCC(C)(C)O)CC2)ncc2[nH]c(-c3cc(C)c4ncnn4c3)c(C(C)C)c12` [Example 283], the results for the IC50 against human TLR7, on human TLR8 and at human TLR9 were 0.46 nM, 0.27 nM and 1620 nM, respectively.
On to `Cc1c(N2CCC(N3CCNC(=O)C3)CC2)ncc2[nH]c(-c3cc(C)c4ncnn4c3)c(C(C)C)c12` [Example 284], for which the IC50 against human TLR7 came out at 8.3 nM; on human TLR8, 14 nM; at human TLR9, 23500 nM.
Regarding `Cc1c(N2CCC(N3CCN(S(C)(=O)=O)CC3)CC2)ncc2[nH]c(-c3cc(C)c4ncnn4c3)c(C(C)C)c12` [Example 285], the IC50 against human TLR7 worked out at 1.3 nM; at human TLR8 it was 1.6 nM; on human TLR9 it was 1870 nM.
With `CCN(CCC#N)C1CCN(c2ncc3[nH]c(-c4cc(C)c5ncnn5c4)c(C(C)C)c3c2C)CC1` [Example 286], the 50% inhibitory concentration (IC50) was 2.2 nM against human TLR7, 2.2 nM at human TLR8 and 2860 nM at human TLR9.
`CNC(=O)CN1CCC(c2cc3c(C(C)C)c(-c4cc(C)c5ncnn5c4)[nH]c3cn2)CC1` [Example 287]: the results for the IC50 against human TLR7, at human TLR8 and on human TLR9 were 2 nM, 16 nM and 718 nM, respectively.
Consider `COc1cc(-c2[nH]c3cnc(N4CCN(CCS(C)(=O)=O)CC4)cc3c2C(C)C)cn2ncnc12` [Example 290], for which the values for the IC50 against human TLR7, on human TLR8 and on human TLR9 were 20 nM, 7.1 nM and > 50000 nM, respectively.
On to `CNCC(=O)N1CCN(c2ncc3[nH]c(-c4cc(OC)c5ncnn5c4)c(C(C)C)c3c2Cl)CC1` [Example 291], for which the IC50 against human TLR7 is 3 nM; at human TLR8, 4.9 nM; at human TLR9, 494 nM.
With `CNC(=O)CN1CCC(c2cc3c(C(C)C)c(-c4cc(OC)c5ncnn5c4)[nH]c3cn2)CC1` [Example 292], the results for the IC50 against human TLR7, on human TLR8 and at human TLR9 were 7 nM, 47 nM and 303 nM, respectively.
In the case of `CNC(=O)CN1CCN(c2ncc3[nH]c(-c4cc(OC)c5ncnn5c4)c(C(C)C)c3c2Cl)CC1` [Example 293], the IC50 at human TLR7 was 3.1 nM; at human TLR8, 4.7 nM; at human TLR9, 29100 nM.
Regarding `COc1cc(-c2[nH]c3cnc(N4CCN(CCS(C)(=O)=O)CC4)c(Cl)c3c2C(C)C)cn2ncnc12` [Example 294], the IC50 on human TLR7 was found to be 3 nM; at human TLR8, 4.7 nM; at human TLR9, 7630 nM.
As to `COc1cc(-c2[nH]c3cnc(C4CCN(CC(C)(C)O)CC4)cc3c2C(C)C)cn2ncnc12` [Example 296], the results for the IC50 against human TLR7, at human TLR8 and on human TLR9 were 3.3 nM, 5.4 nM and 132 nM, respectively.
As to `Cc1cc(-c2[nH]c3cnc(N4CCN(CC(=O)N(C)C)CC4)cc3c2C(C)C)cn2ncnc12` [Example 297], the IC50 on human TLR7 is > 3120 nM; on human TLR8 it was > 3120 nM; at human TLR9, 17900 nM.
As for `COc1cc(-c2[nH]c3cnc(C4CCN(CC(=O)N(C)C)CC4)cc3c2C(C)C)cn2ncnc12` [Example 298], the results for the IC50 at human TLR7, at human TLR8 and on human TLR9 were 14 nM, 75 nM and 459 nM, respectively.
Regarding `Cc1cc(-c2[nH]c3cnc(C4CCN(CC(=O)N(C)C)CC4)cc3c2C(C)C)cn2ncnc12` [Example 299], the IC50 amounted to 2.9 nM against human TLR7, 25 nM at human TLR8 and 356 nM on human TLR9.
The corresponding values for `COc1cc(-c2[nH]c3cnc(N4CCN(CC(=O)N(C)C)CC4)cc3c2C(C)C)cn2ncnc12` [Example 300] are 13 nM, 1.6 nM and 11900 nM.
